Conditions: 101.33 kPa, Liquid, transient hot wire

CCO [ethanol]
Conditions	thermal conductivity [W/m/K]
276.51 K	0.1719
280.8 K	0.1687
284.27 K	0.1699
290.37 K	0.1677
293.43 K	0.1658

CCCCCCCCCC(=O)OCC [ethyl decanoate]
Conditions	thermal conductivity [W/m/K]
270 K	0.1483
279.98 K	0.1463
289.85 K	0.1442
299.64 K	0.1422
309.6 K	0.14
319.72 K	0.1375
329.53 K	0.1355
339.49 K	0.1332
349.51 K	0.1307
359.46 K	0.1284
369.3 K	0.1266
374.44 K	0.1248
379.49 K	0.1238
389.25 K	0.1214
400.44 K	0.1195

CCCCCCCCCCCC(=O)OCC [ethyl dodecanoate]
Conditions	thermal conductivity [W/m/K]
274.73 K	0.151
284.69 K	0.1489
294.56 K	0.1471
304.59 K	0.1446
314.47 K	0.1424
324.41 K	0.1399
334.28 K	0.1377
344.09 K	0.1362
349.21 K	0.1343
354.09 K	0.1334
359.09 K	0.1321
369.13 K	0.1296
379.1 K	0.1275
389.1 K	0.1253
400.08 K	0.1229

CCCCCCC(=O)OCC [ethyl heptanoate]
Conditions	thermal conductivity [W/m/K]
250.38 K	0.1482
260.21 K	0.1463
270.16 K	0.1441
280.02 K	0.1414
289.93 K	0.1397
299.84 K	0.137
309.9 K	0.1343
319.73 K	0.1321
329.73 K	0.1294
337.72 K	0.127
341.71 K	0.1259
347.65 K	0.1251
353.6 K	0.1235
363.5 K	0.121
373.51 K	0.1183
383.64 K	0.1155
393.46 K	0.1139

CCCCCCCC(=O)OCC [ethyl octanoate]
Conditions	thermal conductivity [W/m/K]
254.76 K	0.1484
264.72 K	0.1462
274.7 K	0.144
284.63 K	0.1422
294.53 K	0.1405
300.47 K	0.1387
307.05 K	0.1366
310.45 K	0.1356
320.37 K	0.1336
330.4 K	0.1312
340.34 K	0.1286
350.38 K	0.1268
360.32 K	0.1234
370.25 K	0.1211
380.17 K	0.1188
390.39 K	0.1167
400.37 K	0.1142

CCCCCCCCCCCCCC(=O)OCC [ethyl tetradecanoate]
Conditions	thermal conductivity [W/m/K]
290.64 K	0.1515
298.29 K	0.1501
307.33 K	0.1481
315.2 K	0.1465
324.22 K	0.1448
333.17 K	0.1426
340.99 K	0.1406
350.11 K	0.1383
359.07 K	0.137
367.97 K	0.1342
377.86 K	0.1326
389.06 K	0.1297
393.88 K	0.1286

O [water]
Conditions	thermal conductivity [W/m/K]
293.09 K	0.6056
299.55 K	0.613
309.83 K	0.6313
314.96 K	0.6399
319.56 K	0.6399
324.64 K	0.6492
332.53 K	0.6555
339.33 K	0.657
340.41 K	0.6654
349.41 K	0.6723

Reference: the NIST ThermoML archive (doi:10.1016/j.fluid.2018.06.004)
